From PMC3853718 (Journal of Translational Medicine, 2013)

System: subjects with advanced malignancies
Assay: Phase 1 dose escalation: toxicity, safety and tolerability (DLT, MAD, RP2D, AEs)
Experimental: Subjects continued on treatment until there was disease progression, unacceptable toxicity, or the subject withdrew consent. The trial employed an accelerated titration design [16] starting at a dose of 0.33 mg/m^2 (one-sixth of the highest nontoxic dose in dogs).
the dose was doubled in sequential subjects until a DLT was observed or a subject experienced grade 2 toxicity [16]. In the case of an observed grade 2 toxicity, a second subject was enrolled at the same dose level. If the second subject also experienced a grade 2 toxicity, 2 additional subjects were accrued at that dose level for a total of 4 subjects. […] Each subject was allocated to only a single dose level of drug. Dose delay or modification was permitted based on laboratory and clinical assessment performed on the day of treatment.
Dose-limiting toxicities were determined during the first cycle for each dose level. A DLT was defined as any grade 3 or 4 hematologic toxicity lasting for at least 1 week, or as any grade 3 or 4 nonhematologic toxicity. […] Normal alkaline phosphatase level (< grade 1) at screening that rose to greater than or equal to grade 3; grade 1 or 2 alkaline phosphatase level at screening that rose to grade 4; grade 1 or 2 aspartate aminotransferase (AST) and/or alanine aminotransferase (ALT) levels at screening that doubled from baseline to become greater than or equal to grade 3; and any other abnormal nonhematology laboratory value greater than or equal to grade 3 that required medical intervention to treat, led to hospitalization, or persisted for at least 1 week were also considered DLTs.
Adverse events were graded based on the National Cancer Institute Common Terminology Criteria for Adverse Events (NCI CTCAE version 3.0) and were coded using the Medical Dictionary for Regulatory Activities (MedDRA version 13.0).

CCc1cnn2c(NCc3ccc[n+]([O-])c3)cc(N3CCCC[C@H]3CCO)nc12 [dinaciclib]
1 (33) n (%): TEAE: Hyperglycemia (10 mg/m^2 (n = 3), Grade 3–4) | TEAE: Neutropenia (10 mg/m^2 (n = 3), Grade 3–4) | TEAE: Subjects with any AE (10 mg/m^2 (n = 3), Grade 3–4)
1(9) n (%): TEAE: Hyperbilirubinemia (12 mg/m^2 (n = 11), Grade 3–4)
5 (100) n (%): TEAE: Subjects with any AE (14 mg/m^2 (n = 5), All grades)
6 (55) n (%): TEAE: Anemia (12 mg/m^2 (n = 11), All grades)
8 (73) n (%): TEAE: Subjects with any AE (12 mg/m^2 (n = 11), Grade 3–4)
0 n (%): TEAE: Hyperuricemia (10 mg/m^2 (n = 3), Grade 3–4) | TEAE: Hypokalemia (10 mg/m^2 (n = 3), Grade 3–4) | TEAE: Hypophosphatemia (10 mg/m^2 (n = 3), Grade 3–4) | TEAE: Increased ALP (10 mg/m^2 (n = 3), Grade 3–4) | TEAE: Increased ALT (10 mg/m^2 (n = 3), Grade 3–4) | TEAE: Increased AST (10 mg/m^2 (n = 3), Grade 3–4) | TEAE: Nausea (10 mg/m^2 (n = 3), Grade 3–4) | TEAE: Peripheral edema (10 mg/m^2 (n = 3), Grade 3–4) | TEAE: Pyrexia (10 mg/m^2 (n = 3), Grade 3–4) | TEAE: Urinary tract infection (10 mg/m^2 (n = 3), Grade 3–4) | TEAE: Vomiting (10 mg/m^2 (n = 3), Grade 3–4) | TEAE: Weight decreased (10 mg/m^2 (n = 3), Grade 3–4) | TEAE: Abdominal pain (12 mg/m^2 (n = 11), All grades) | TEAE: Dehydration (12 mg/m^2 (n = 11), All grades) | TEAE: Dyspnea (12 mg/m^2 (n = 11), All grades) | TEAE: Weight decreased (12 mg/m^2 (n = 11), All grades) | TEAE: Abdominal distension (12 mg/m^2 (n = 11), Grade 3–4) | TEAE: Abdominal pain (12 mg/m^2 (n = 11), Grade 3–4) | TEAE: Asthenia (12 mg/m^2 (n = 11), Grade 3–4) | TEAE: Back pain (12 mg/m^2 (n = 11), Grade 3–4) | TEAE: Constipation (12 mg/m^2 (n = 11), Grade 3–4) | TEAE: Cough (12 mg/m^2 (n = 11), Grade 3–4) | TEAE: Decreased appetite (12 mg/m^2 (n = 11), Grade 3–4) | TEAE: Dehydration (12 mg/m^2 (n = 11), Grade 3–4) | TEAE: Diarrhea (12 mg/m^2 (n = 11), Grade 3–4) | TEAE: Dizziness (12 mg/m^2 (n = 11), Grade 3–4) | TEAE: Dyspnea (12 mg/m^2 (n = 11), Grade 3–4) | TEAE: Fatigue (12 mg/m^2 (n = 11), Grade 3–4) | TEAE: Flatulence (12 mg/m^2 (n = 11), Grade 3–4) | TEAE: Increased ALP (12 mg/m^2 (n = 11), Grade 3–4) | TEAE: Increased ALT (12 mg/m^2 (n = 11), Grade 3–4) | TEAE: Nausea (12 mg/m^2 (n = 11), Grade 3–4) | TEAE: Peripheral edema (12 mg/m^2 (n = 11), Grade 3–4) | TEAE: Pyrexia (12 mg/m^2 (n = 11), Grade 3–4) | TEAE: Urinary tract infection (12 mg/m^2 (n = 11), Grade 3–4) | TEAE: Vomiting (12 mg/m^2 (n = 11), Grade 3–4) | TEAE: Weight decreased (12 mg/m^2 (n = 11), Grade 3–4) | TEAE: Abdominal distension (14 mg/m^2 (n = 5), All grades) | TEAE: Abdominal pain (14 mg/m^2 (n = 5), All grades) | TEAE: Cough (14 mg/m^2 (n = 5), All grades) | TEAE: Diarrhea (14 mg/m^2 (n = 5), All grades) | TEAE: Fatigue (14 mg/m^2 (n = 5), All grades) | TEAE: Flatulence (14 mg/m^2 (n = 5), All grades) | TEAE: Hypokalemia (14 mg/m^2 (n = 5), All grades) | TEAE: Hypophosphatemia (14 mg/m^2 (n = 5), All grades) | TEAE: Increased ALT (14 mg/m^2 (n = 5), All grades) | TEAE: Peripheral edema (14 mg/m^2 (n = 5), All grades) | TEAE: Pyrexia (14 mg/m^2 (n = 5), All grades) | TEAE: Urinary tract infection (14 mg/m^2 (n = 5), All grades) | TEAE: Weight decreased (14 mg/m^2 (n = 5), All grades)
3 (27) n (%): TEAE: Hyperbilirubinemia (12 mg/m^2 (n = 11), All grades) | TEAE: Hyperuricemia (12 mg/m^2 (n = 11), All grades) | TEAE: Increased ALT (12 mg/m^2 (n = 11), All grades) | TEAE: Nausea (12 mg/m^2 (n = 11), All grades) | TEAE: Peripheral edema (12 mg/m^2 (n = 11), All grades) | TEAE: Vomiting (12 mg/m^2 (n = 11), All grades)
2 (40) n (%): TEAE: Anemia (14 mg/m^2 (n = 5), All grades) | TEAE: Hyperbilirubinemia (14 mg/m^2 (n = 5), All grades) | TEAE: Vomiting (14 mg/m^2 (n = 5), All grades)
1 (20) n (%): TEAE: Asthenia (14 mg/m^2 (n = 5), All grades) | TEAE: Back pain (14 mg/m^2 (n = 5), All grades) | TEAE: Constipation (14 mg/m^2 (n = 5), All grades) | TEAE: Decreased appetite (14 mg/m^2 (n = 5), All grades) | TEAE: Dizziness (14 mg/m^2 (n = 5), All grades) | TEAE: Dyspnea (14 mg/m^2 (n = 5), All grades) | TEAE: Hyperglycemia (14 mg/m^2 (n = 5), All grades) | TEAE: Hyperuricemia (14 mg/m^2 (n = 5), All grades) | TEAE: Increased ALP (14 mg/m^2 (n = 5), All grades) | TEAE: Increased AST (14 mg/m^2 (n = 5), All grades)
4 (80) n (%): TEAE: Nausea (14 mg/m^2 (n = 5), All grades)
2 (18) n (%): TEAE: Constipation (12 mg/m^2 (n = 11), All grades) | TEAE: Cough (12 mg/m^2 (n = 11), All grades) | TEAE: Decreased appetite (12 mg/m^2 (n = 11), All grades) | TEAE: Hypokalemia (12 mg/m^2 (n = 11), All grades) | TEAE: Hypophosphatemia (12 mg/m^2 (n = 11), All grades) | TEAE: Hyperglycemia (12 mg/m^2 (n = 11), Grade 3–4) | TEAE: Hyperuricemia (12 mg/m^2 (n = 11), Grade 3–4) | TEAE: Hypophosphatemia (12 mg/m^2 (n = 11), Grade 3–4) | TEAE: Neutropenia (12 mg/m^2 (n = 11), Grade 3–4)
3 (60) n (%): TEAE: Dehydration (14 mg/m^2 (n = 5), All grades) | TEAE: Neutropenia (14 mg/m^2 (n = 5), All grades)
4 (36) n (%): TEAE: Asthenia (12 mg/m^2 (n = 11), All grades) | TEAE: Fatigue (12 mg/m^2 (n = 11), All grades) | TEAE: Hyperglycemia (12 mg/m^2 (n = 11), All grades) | TEAE: Increased ALP (12 mg/m^2 (n = 11), All grades) | TEAE: Increased AST (12 mg/m^2 (n = 11), All grades) | TEAE: Neutropenia (12 mg/m^2 (n = 11), All grades) | TEAE: Pyrexia (12 mg/m^2 (n = 11), All grades) | TEAE: Urinary tract infection (12 mg/m^2 (n = 11), All grades)
1 (9) n (%): TEAE: Abdominal distension (12 mg/m^2 (n = 11), All grades) | TEAE: Back pain (12 mg/m^2 (n = 11), All grades) | TEAE: Diarrhea (12 mg/m^2 (n = 11), All grades) | TEAE: Dizziness (12 mg/m^2 (n = 11), All grades) | TEAE: Flatulence (12 mg/m^2 (n = 11), All grades) | TEAE: Anemia (12 mg/m^2 (n = 11), Grade 3–4) | TEAE: Hypokalemia (12 mg/m^2 (n = 11), Grade 3–4) | TEAE: Increased AST (12 mg/m^2 (n = 11), Grade 3–4)
11 (100) n (%): TEAE: Subjects with any AE (12 mg/m^2 (n = 11), All grades)
